Results from ChEMBL document CHEMBL3112450, “Synthesis and in vitro antitumor evaluation of primary amine substituted quinazoline linked benzimidazole” (Bioorg Med Chem Lett, 2014).

How the values were obtained:
Type in all cases: functional
RXF 393 = assay: Cytotoxicity against human RXF393 cells assessed as cell growth at 10^-5 M after 48 hrs by SRB assay; details: RXF 393, 48 h, read-out: Activity
MCF7 = assay: Cytotoxicity against human MCF7 cells assessed as cell growth at 10^-5 M after 48 hrs by SRB assay; details: MCF7, 48 h, read-out: Activity
U-251 = assay: Cytotoxicity against human U251 cells after 48 hrs by SRB assay; details: U-251, 48 h
MDA-MB-435 = assay: Cytotoxicity against human MDA-MB-435 cells assessed as cell growth at 10^-5 M after 48 hrs by SRB assay; details: MDA-MB-435, 48 h, read-out: Activity
SNB-19 = assay: Cytotoxicity against human SNB19 cells after 48 hrs by SRB assay; details: SNB-19, 48 h
[1] = Cytotoxicity against human UACC257 cells assessed as cell growth at 10^-5 M after 48 hrs by SRB assay; details: UACC-257, 48 h, read-out: Activity
A498 = assay: Cytotoxicity against human A498 cells assessed as cell growth at 10^-5 M after 48 hrs by SRB assay; details: A498, 48 h, read-out: Activity
SN12C = assay: Cytotoxicity against human SN12C cells assessed as cell growth at 10^-5 M after 48 hrs by SRB assay; details: read-out: Activity
[2] = Cytotoxicity against human OVCAR5 cells assessed as cell growth at 10^-8 M after 48 hrs by SRB assay; details: OVCAR-5, 48 h, read-out: Activity
HOP-92 [3] = assay: Cytotoxicity against human HOP92 cells assessed as cell growth at 10^-5 M after 48 hrs by SRB assay; details: HOP-92, 48 h, read-out: Activity
[4] = Cytotoxicity against human OVCAR4 cells assessed as cell growth at 10^-5 M after 48 hrs by SRB assay; details: OVCAR-4, 48 h, read-out: Activity
[5] = Cytotoxicity against human OVCAR5 cells after 48 hrs by SRB assay; details: OVCAR-5, 48 h
OVCAR-3 = assay: Cytotoxicity against human OVCAR3 cells assessed as cell growth at 10^-5 M after 48 hrs by SRB assay; details: OVCAR-3, 48 h, read-out: Activity
COLO 205 = assay: Cytotoxicity against human COLO205 cells assessed as cell growth at 10^-5 M after 48 hrs by SRB assay; details: COLO 205, 48 h, read-out: Activity
HOP-92 [6] = assay: Cytotoxicity against human HOP92 cells assessed as cell growth at 10^-8 M after 48 hrs by SRB assay; details: HOP-92, 48 h, read-out: Activity
LOX IMVI = assay: Cytotoxicity against human LOXIMVI cells assessed as cell growth at 10^-5 M after 48 hrs by SRB assay; details: read-out: Activity
NCI-H460 = assay: Cytotoxicity against human NCI-H460 cells assessed as cell growth at 10^-8 M after 48 hrs by SRB assay; details: NCI-H460, 48 h, read-out: Activity
SR = assay: Cytotoxicity against human SR cells assessed as cell growth at 10^-8 M after 48 hrs by SRB assay; details: read-out: Activity
ACHN = assay: Cytotoxicity against human ACHN cells assessed as cell growth at 10^-7 M after 48 hrs by SRB assay; details: read-out: Activity
SK-MEL-2 = assay: Cytotoxicity against human SK-MEL-2 cells assessed as cell growth at 10^-7 M after 48 hrs by SRB assay; details: SK-MEL-2, 48 h, read-out: Activity
KM12 = assay: Cytotoxicity against human KM12 cells assessed as cell growth at 10^-5 M after 48 hrs by SRB assay; details: KM12, 48 h, read-out: Activity
MDA-MB-231 = assay: Cytotoxicity against human MDA-MB-231 cells assessed as cell growth at 10^-5 M after 48 hrs by SRB assay; details: MDA-MB-231, 48 h, read-out: Activity
SF-539 = assay: Cytotoxicity against human SF539 cells assessed as cell growth at 10^-5 M after 48 hrs by SRB assay; details: SF-539, 48 h, read-out: Activity
SK-MEL-28 = assay: Cytotoxicity against human SK-MEL-28 cells assessed as cell growth at 10^-4 M after 48 hrs by SRB assay; details: SK-MEL-28, 48 h, read-out: Activity
T47D = assay: Cytotoxicity against human T47D cells assessed as cell growth at 10^-5 M after 48 hrs by SRB assay; details: read-out: Activity
K562 = assay: Cytotoxicity against human K562 cells assessed as cell growth at 10^-4 M after 48 hrs by SRB assay; details: K562, 48 h, read-out: Activity
SK-MEL-5 = assay: Cytotoxicity against human SK-MEL-5 cells assessed as cell growth at 10^-8 M after 48 hrs by SRB assay; details: SK-MEL-5, 48 h, read-out: Activity
SNB-75 = assay: Cytotoxicity against human SNB75 cells assessed as cell growth at 10^-5 M after 48 hrs by SRB assay; details: SNB-75, 48 h, read-out: Activity
SK-OV-3 = assay: Cytotoxicity against human SKOV3 cells assessed as cell growth at 10^-6 M after 48 hrs by SRB assay; details: SK-OV-3, 48 h, read-out: Activity
SF-268 = assay: Cytotoxicity against human SF268 cells assessed as cell growth at 10^-5 M after 48 hrs by SRB assay; details: SF-268, 48 h, read-out: Activity
HCT-116 = assay: Cytotoxicity against human HCT116 cells assessed as cell growth at 10^-5 M after 48 hrs by SRB assay; details: HCT-116, 48 h, read-out: Activity
MOLT-4 = assay: Cytotoxicity against human MOLT4 cells assessed as cell growth at 10^-4 M after 48 hrs by SRB assay; details: MOLT-4, 48 h, read-out: Activity
HL-60(TB) = assay: Cytotoxicity against human HL-60(TB) cells assessed as cell growth at 10^-4 M after 48 hrs by SRB assay; details: HL-60, 48 h, read-out: Activity
PC-3 = assay: Cytotoxicity against human PC3 cells assessed as cell growth at 10^-5 M after 48 hrs by SRB assay; details: PC-3, 48 h, read-out: Activity
SF-295 = assay: Cytotoxicity against human SF295 cells assessed as cell growth at 10^-5 M after 48 hrs by SRB assay; details: SF-295, 48 h, read-out: Activity
[7] = Cytotoxicity against human Hs578T cells assessed as cell growth at 10^-5 M after 48 hrs by SRB assay; details: Hs-578T, read-out: Activity
[8] = Cytotoxicity against human NCI-ADR-RES cells assessed as cell growth at 10^-5 M after 48 hrs by SRB assay; details: read-out: Activity
NCI-H226 = assay: Cytotoxicity against human NCI-H226 cells assessed as cell growth at 10^-7 M after 48 hrs by SRB assay; details: NCI-H226, 48 h, read-out: Activity
[9] = read-out: LC50 (the source's name)

C=CCn1c(C)nc2cc(Nc3nc(Nc4ccc5nc(C)n(CC=C)c5c4)c4ccccc4n3)ccc21
growth at 10 µM (RXF 393): -97.4%
growth at 10 µM (MCF7): -89.3%
GI50 (U-251): 0.177 µM
TGI (U-251): 0.331 µM
growth at 10 µM (MDA-MB-435): -92%
GI50 (SNB-19): 1.08 µM
TGI (SNB-19): 2.62 µM
growth at 10 µM [1]: -79.8%
growth at 10 µM (A498): -100%
growth at 10 µM (SN12C): -76%
growth at 0.01 µM [2]: 93%
growth at 10 µM (HOP-92 [3]): -97%
growth at 10 µM [4]: -100%
GI50 [5]: 0.4 µM
TGI [5]: 1.49 µM
growth at 10 µM (OVCAR-3): -100%
growth at 10 µM (COLO 205): -100%
growth at 0.01 µM (HOP-92 [6]): 85%
growth at 10 µM (LOX IMVI): -94%
growth at 0.01 µM (NCI-H460): 102%
growth at 0.01 µM (SR): 95%
growth at 0.1 µM (ACHN): 103%
growth at 0.1 µM (SK-MEL-2): 98%
growth at 10 µM (KM12): -100%
growth at 10 µM (MDA-MB-231): -89%
growth at 10 µM (SF-539): -100%
growth at 100 µM (SK-MEL-28): -48%
growth at 10 µM (T47D): -60.4%
growth at 100 µM (K562): 2%
growth at 0.01 µM (SK-MEL-5): 100%
growth at 10 µM (SNB-75): -96.7%
growth at 1 µM (SK-OV-3): 97%
growth at 10 µM (SF-268): -99%
growth at 10 µM (HCT-116): -96.5%
growth at 100 µM (MOLT-4): -18%
growth at 100 µM (HL-60(TB)): -28%
growth at 10 µM (PC-3): -100%
growth at 10 µM (SF-295): -100%
growth at 10 µM [7]: -48.1%
growth at 10 µM [8]: -46%
growth at 0.1 µM (NCI-H226): 82%

C=CCn1c(C)nc2ccc(Nc3nc(Nc4ccc(F)cc4)nc4ccccc34)cc21
growth at 10 µM (RXF 393): -92%
growth at 10 µM (MCF7): -63%
GI50 (U-251): 3.15 µM
TGI (U-251): 14.9 µM
CC50 (U-251; [9]): 48.9 µM
growth at 10 µM (MDA-MB-435): 24%
GI50 (SNB-19): 9 µM
TGI (SNB-19): 23.8 µM
CC50 (SNB-19; [9]): 58.6 µM
growth at 10 µM [1]: 66%
growth at 10 µM (A498): 42%
growth at 10 µM (SN12C): 11%
growth at 0.01 µM [2]: 101%
growth at 10 µM (HOP-92 [3]): -8%
growth at 10 µM [4]: -26%
GI50 [5]: 11.6 µM
LC50 [5]: 61.2 µM
TGI [5]: 26.6 µM
growth at 10 µM (OVCAR-3): 30%
growth at 10 µM (COLO 205): -91%
growth at 0.01 µM (HOP-92 [6]): 95%
growth at 10 µM (LOX IMVI): 24%
growth at 0.01 µM (NCI-H460): 100%
growth at 0.01 µM (SR): 98%
growth at 0.1 µM (ACHN): 97%
growth at 0.1 µM (SK-MEL-2): 101%
growth at 10 µM (KM12): 22%
growth at 10 µM (MDA-MB-231): -8%
growth at 10 µM (SF-539): 64%
growth at 100 µM (SK-MEL-28): -50%
growth at 10 µM (T47D): -47%
growth at 100 µM (K562): -41%
growth at 0.01 µM (SK-MEL-5): 92%
growth at 10 µM (SNB-75): -68%
growth at 1 µM (SK-OV-3): 100%
growth at 10 µM (SF-268): 47%
growth at 10 µM (HCT-116): -11%
growth at 100 µM (MOLT-4): -48%
growth at 100 µM (HL-60(TB)): -45%
growth at 10 µM (PC-3): 16%
growth at 10 µM (SF-295): 31.4%
growth at 10 µM [7]: 50%
growth at 10 µM [8]: 20%
growth at 0.1 µM (NCI-H226): 93%
